Reference: ChEMBL document CHEMBL3120130, “Benzenesulfonamide bearing 1,2,4-triazole scaffolds as potent inhibitors of tumor associated carbonic anhydrase isoforms hCA IX and hCA XII” (Bioorg Med Chem, 2014)
pKi: −log10 of the molar value.

What was measured:
Carbonic anhydrase 9 = Carbonic anhydrase 9 (Homo sapiens, UniProt Q16790); assay: Inhibition of human transmembrane carbonic anhydrase 9 by stopped flow CO2 hydration assay
Carbonic anhydrase 1 = Carbonic anhydrase 1 (Homo sapiens, UniProt P00915); assay: Inhibition of human cytosolic carbonic anhydrase 1 by stopped flow CO2 hydration assay
Carbonic anhydrase 1, sequence (P00915 whole entry): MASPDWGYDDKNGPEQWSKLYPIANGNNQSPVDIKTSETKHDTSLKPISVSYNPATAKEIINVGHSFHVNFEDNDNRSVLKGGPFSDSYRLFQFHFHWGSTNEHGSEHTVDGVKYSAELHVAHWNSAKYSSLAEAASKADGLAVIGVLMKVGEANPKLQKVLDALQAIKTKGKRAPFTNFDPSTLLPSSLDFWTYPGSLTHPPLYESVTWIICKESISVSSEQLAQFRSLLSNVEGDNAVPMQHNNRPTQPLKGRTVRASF

| Structure (SMILES) | pKi (Carbonic anhydrase 9) | pKi (Carbonic anhydrase 1) |
| --- | --- | --- |
| NS(=O)(=O)c1ccc(-c2n[nH]c(=S)n2-c2ccc(S(N)(=O)=O)cc2)cc1 | 8.05 |  |
| NS(=O)(=O)c1ccc(-c2nnc3n2N=C(c2ccccc2)CS3)cc1 | 7.68 |  |
| Cc1ccc(C2=Nn3c(nnc3-c3ccc(S(N)(=O)=O)cc3)SC2)cc1 | 7.89 |  |
| NS(=O)(=O)c1ccc(-c2nnc3n2N=C(c2ccc(F)cc2)CS3)cc1 | 7.60 |  |
| NS(=O)(=O)c1ccc(-c2nnc3sc(-c4ccc(Cl)cc4)nn23)cc1 | 7.05 |  |
| Cc1ccc(-c2n[nH]c(=S)n2-c2ccc(S(N)(=O)=O)cc2)cc1 | 7.80 |  |
| NS(=O)(=O)c1ccc(-n2c(-c3ccc(Cl)cc3)n[nH]c2=S)cc1 | 8.24 |  |
| NS(=O)(=O)c1ccc(-n2c(-c3ccc(Br)cc3)n[nH]c2=S)cc1 | 8.12 |  |

Other lines, results leading:

| pKi (Carbonic anhydrase 9) | pKi (Carbonic anhydrase 1) | Structure (SMILES) |
| --- | --- | --- |
| 7.12 |  | NS(=O)(=O)c1ccc(-c2nnc3n2N=C(c2ccc(Cl)cc2)CS3)cc1 |
| 8.43 |  | NS(=O)(=O)c1ccc(-c2nnc3n2N=C(c2ccc(Br)cc2)CS3)cc1 |
| 6.94 |  | NS(=O)(=O)c1ccc(-c2nnc3n2N=C(c2ccc([N+](=O)[O-])cc2)CS3)cc1 |
| 6.94 |  | NS(=O)(=O)c1ccc(-c2nnc3sc(-c4ccccc4)nn23)cc1 |
| 6.45 | < 5.00 | Cc1ccc(-c2nn3c(-c4ccc(S(N)(=O)=O)cc4)nnc3s2)cc1 |
| 6.37 | < 5.00 | COc1ccc(-c2nn3c(-c4ccc(S(N)(=O)=O)cc4)nnc3s2)cc1 |
| 7.19 | < 5.00 | NS(=O)(=O)c1ccc(-c2nnc3sc(-c4ccc(F)cc4)nn23)cc1 |
| 6.98 |  | NS(=O)(=O)c1ccc(-c2nnc3sc(-c4ccc(Br)cc4)nn23)cc1 |
| 7.39 | < 5.00 | NS(=O)(=O)c1ccc(-c2nnc3sc(-c4ccc([N+](=O)[O-])cc4)nn23)cc1 |
| 8.55 |  | NS(=O)(=O)c1ccc(-n2c(-c3ccc(F)cc3)n[nH]c2=S)cc1 |
